Source: the supplement of paper PMC10307832

Tests used:
Assay in all cases: relative viability (nuclei count vs DMSO), 5 days (fraction); higher = more cells survive
[1] = compound: C1/C(=C\C2=CC=CS2)/C(=O)/C(=C/C3=CC=CS3)/C1 + CS(=O)(=O)N1CCN(Cc2cc3nc(-c4cccc5[nH]ncc45)nc(N4CCOCC4)c3s2)CC1 [Pictilisib] (partner 1 µM)
Outline: (§1)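 Dosing by pin tool came one day after lung cancer cell lines were seeded in 1536-well plates, using either one drug or a fixed anchor-drug dose plus five library-drug doses (not always all listed) in √10 steps. After 5 days, nuclei were counted on 4× images. Relative viability is treated-well nuclei count divided by vehicle-well nuclei count, and values are medians of duplicate plates.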

Lestaurtinib + Alpelisib = compound: C[C@]12O[C@H](C[C@]1(O)CO)n1c3ccccc3c3c4c(c5c6ccccc6n2c5c31)CNC4=O [Lestaurtinib] + Cc1nc(NC(=O)N2CCC[C@H]2C(N)=O)sc1-c1ccnc(C(C)(C)C(F)(F)F)c1 [Alpelisib] (partner 2 µM)
Outline: as §1

Lestaurtinib + Dasatinib = compound: C[C@]12O[C@H](C[C@]1(O)CO)n1c3ccccc3c3c4c(c5c6ccccc6n2c5c31)CNC4=O [Lestaurtinib] + Cc1nc(Nc2ncc(C(=O)Nc3c(C)cccc3Cl)s2)cc(N2CCN(CCO)CC2)n1 [Dasatinib] (partner 0.075 µM)
Outline: as §1

[2] = compound: C1/C(=C\C2=CC=CS2)/C(=O)/C(=C/C3=CC=CS3)/C1 + COc1cccc2cc(-c3nc([C@H]4CC[C@H](C(=O)O)CC4)n4ncnc(N)c34)[nH]c12 [OSI-027] (partner 0.5 µM)
Outline: as §1

UMC-11
relative viability ([1]; first compound 0.2 µM): 0.829
relative viability ([1]; first compound 0.6325 µM): 0.962
relative viability ([1]; first compound 2 µM): 0.934
relative viability ([1]; first compound 20 µM): 0.758
relative viability (Lestaurtinib + Alpelisib; first compound 0.005 µM): 0.967
relative viability (Lestaurtinib + Alpelisib; first compound 0.01581 µM): 0.968
relative viability (Lestaurtinib + Alpelisib; first compound 0.05 µM): 0.471
relative viability (Lestaurtinib + Alpelisib; first compound 0.1581 µM): 0.297
relative viability (Lestaurtinib + Alpelisib; first compound 0.5 µM): 0.156
relative viability (Lestaurtinib + Dasatinib; first compound 0.005 µM): 0.543
relative viability (Lestaurtinib + Dasatinib; first compound 0.01581 µM): 0.501
relative viability (Lestaurtinib + Dasatinib; first compound 0.05 µM): 0.247
relative viability (Lestaurtinib + Dasatinib; first compound 0.1581 µM): 0.231
relative viability (Lestaurtinib + Dasatinib; first compound 0.5 µM): 0.146
relative viability ([2]; first compound 0.2 µM): 0.474
relative viability ([2]; first compound 0.6325 µM): 0.484
relative viability ([2]; first compound 20 µM): 0.45
